Where two headings read alike, the source gives them in different places.
How the values were obtained:
GluN1/GluN2D [1] = molecular target: GluN1/GluN2D (Rattus norvegicus, UniProt P35439+Q62645); experiment: Whole-cell voltage-clamp recordings, HEK cells, GluN1/GluN2D (agonist dependence); assay type: cell-based; details: for Kd: from kON and kOFF
Text: (§1) We previously described the actions of the GluN2C/GluN2D-preferring negative allosteric modulator DQP-1105 as dependent on glutamate (but not glycine) binding, in that DQP-1105 affinity increases after GluN1/GluN2D NMDARs bind glutamate.[32] […] The concentration-dependent relaxation is indicative of an agonist-induced increase in potency that leads to re-equilibration of the inhibitor after agonist binding induces an increase in inhibitor affinity. We investigated the glutamate dependence of compound 2i (GluN1/GluN2D, Figure 4; GluN1/GluN2C, Figure S2), DQP-1105 (Figure S1), and compound (S)-2a (DQP-69;[33]Figure S3) using the same protocols.
(§2) We preincubated cells with glycine and the inhibitor 2i (DQP-997-74) and compared inhibitor potency during the peak and steady-state current responses to glutamate application. […] To investigate the time course of 2i inhibition, we fitted the relaxation of the current response with a single exponential function. If the current response time course reflects 2i binding, then the reciprocal of τinhibition should be linearly related to its concentration, with the slope equal to kON and intercept equal to kOFF. […] The deactivation of GluN1/GluN2D receptors (5.3 ± 0.2 s) was slowed by the presence of compound 2i when applied at concentrations of 0.1 μM (7.3 ± 0.3 s; p = 0.017) and 0.3 μM (10.5 ± 1.0 s; p = 0.002) but not at 0.03 μM (5.6 ± 0.3 s; p = 0.518; Figure 4E). […] This phenomenon was previously discovered for QNZ-46, a glutamate-dependent GluN2C/2D-selective inhibitor with a different structural core.[42] As proposed in that study, the prolonged deactivation may indicate that 2i slows a conformational change necessary for glutamate unbinding or 2i may need to unbind before glutamate can unbind.
(§3) In addition, we evaluated how glutamate dependence affects inhibition of responses to brief agonist applications similar to phasic glutamate release that occurs at synapses. To do so, we preincubated cells expressing GluN1/GluN2D receptors with the inhibitor 2i and then applied trains of five brief pulses of NMDA (which dissociates more rapidly than glutamate) and glycine from a pressurized micropipette to mimic repetitive synaptic transmission (Figure 4F). We measured the peak amplitude and compared the concentration–response curves for the inhibition of the first and last response (Figure 4G). The initial train of pulses in the absence of drug controls for systematic errors such as internalization of receptors.
(§4) To further evaluate whether 2i followed the law of mass action, we coapplied different concentrations of 2i with glutamate during the steady-state glutamate and glycine responses of GluN1/GluN2D receptors expressed in HEK cells (Figure 4H). […] We also fitted the onset and offset time course of the inhibition produced by compound 2i with a single exponential function (Figure 4J).
(§5) HEK293 cells (HEK, ATCC CRL-1573) were plated on glass coverslips pretreated with 0.1 mg/mL poly-D-lysine and cultured in Dulbecco’s modified Eagle medium (DMEM) plus Glutamax (GIBCO 10569-10) supplemented with 10% fetal bovine serum, 10 U/mL of penicillin, and 10 μg/mL of streptomycin at 37 °C and 5% CO2. The cells were transiently transfected with cDNA encoding rat GluN1, GluN2D, and eGFP at a ratio of 1:1:5 by using the calcium phosphate precipitation method.[48] After 24–48 h following the transfection, the cells were perfused with external recording solution that contained (in mM) 3 KCl, 150 NaCl, 0.01 EDTA, 1.0 CaCl2, 10 HEPES, and 22 D-mannitol (the pH was adjusted to 7.4 with NaOH). The patch electrodes (resistance 3–5 MΩ) were prepared from thin-walled glass micropipettes (TW150F-4, World Precision Instruments, Sarasota, FL) by a dual-stage glass micropipette puller (PC-10, Narishige, Tokyo, Japan) and filled with internal solution containing (in mM) 110 D-gluconate, 110 CsOH, 30 CsCl, 5 HEPES, 4 NaCl, 0.5 CaCl2, 2 MgCl2, 5 BAPTA, 2 NaATP, and 0.3 NaGTP. […]

GluN1/GluN2D [2] = molecular target: GluN1/GluN2D (Rattus norvegicus, UniProt Q62645); experiment: as above; assay type: cell-based
Sequence of GluN1/GluN2D (Rattus norvegicus, UniProt Q62645) (Q62645 28-1323, other chains not shown): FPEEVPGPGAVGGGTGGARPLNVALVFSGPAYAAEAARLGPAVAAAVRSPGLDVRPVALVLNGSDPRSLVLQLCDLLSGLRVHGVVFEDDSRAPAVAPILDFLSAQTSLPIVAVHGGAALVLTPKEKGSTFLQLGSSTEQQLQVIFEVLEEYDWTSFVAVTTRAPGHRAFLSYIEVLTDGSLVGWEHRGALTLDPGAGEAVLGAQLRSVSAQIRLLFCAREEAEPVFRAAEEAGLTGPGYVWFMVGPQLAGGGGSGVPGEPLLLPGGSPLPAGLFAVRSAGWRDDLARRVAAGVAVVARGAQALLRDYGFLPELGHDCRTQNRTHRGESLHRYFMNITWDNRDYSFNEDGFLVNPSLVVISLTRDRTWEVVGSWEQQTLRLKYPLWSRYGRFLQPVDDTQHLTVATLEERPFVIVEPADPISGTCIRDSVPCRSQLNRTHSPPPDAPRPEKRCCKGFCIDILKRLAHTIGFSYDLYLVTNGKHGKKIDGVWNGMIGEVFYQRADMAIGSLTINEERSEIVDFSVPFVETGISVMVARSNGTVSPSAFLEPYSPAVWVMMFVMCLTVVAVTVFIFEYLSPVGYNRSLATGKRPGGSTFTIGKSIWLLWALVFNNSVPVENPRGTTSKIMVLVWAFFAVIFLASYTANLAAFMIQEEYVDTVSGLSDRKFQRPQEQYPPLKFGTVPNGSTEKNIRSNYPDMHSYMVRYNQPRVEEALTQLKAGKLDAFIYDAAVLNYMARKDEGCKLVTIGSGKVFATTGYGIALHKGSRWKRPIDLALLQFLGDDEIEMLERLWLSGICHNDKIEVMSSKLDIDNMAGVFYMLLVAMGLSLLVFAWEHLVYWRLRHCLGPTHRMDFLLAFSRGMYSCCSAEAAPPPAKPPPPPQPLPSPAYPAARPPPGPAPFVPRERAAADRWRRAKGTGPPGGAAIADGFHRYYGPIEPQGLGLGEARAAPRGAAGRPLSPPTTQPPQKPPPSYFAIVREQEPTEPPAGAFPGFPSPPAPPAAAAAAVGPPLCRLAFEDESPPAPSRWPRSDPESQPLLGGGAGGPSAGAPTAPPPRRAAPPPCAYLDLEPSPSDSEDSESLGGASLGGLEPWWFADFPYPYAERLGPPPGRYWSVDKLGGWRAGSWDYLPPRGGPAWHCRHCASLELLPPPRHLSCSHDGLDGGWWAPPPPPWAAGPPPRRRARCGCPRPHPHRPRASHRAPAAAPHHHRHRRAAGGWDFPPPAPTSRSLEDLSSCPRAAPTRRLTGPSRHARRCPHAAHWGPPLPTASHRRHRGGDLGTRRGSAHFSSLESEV
Text: as §1, §2, §3, §4, §5

[3] = HEK293, coapplication with glutamate
[4] = HEK293, inhibitor preapplied, linear regression of 1/τinhibition vs concentration

Sequence of GluN1/GluN2D (Rattus norvegicus, UniProt P35439+Q62645) (Q62645 28-1323, other chains not shown): as above

koff (GluN1/GluN2D [1]; [3]): 0.05 s⁻¹
kon (GluN1/GluN2D [1]; [3]): 210000 M⁻¹ s⁻¹
koff (GluN1/GluN2D [1]; [4]): 0.17 s⁻¹
kon (GluN1/GluN2D [1]; [4]): 400000 M⁻¹ s⁻¹
Kd (GluN1/GluN2D [1]; coapplication with glutamate): 240 nM
IC50 (GluN1/GluN2D [1]; compound coapplied with glutamate during steady-state response, read-out: IC50 steady-state inhibition, coapplication): 100 nM
IC50 (GluN1/GluN2D [1]; fifth of 5 brief NMDA (500 μM)/glycine (250 μM) pulses at 1 s intervals, read-out: IC50 pulse 5 (95% CI)): 400 nM
IC50 (GluN1/GluN2D [1]; first of 5 brief NMDA (500 μM)/glycine (250 μM) pulses at 1 s intervals, read-out: IC50 pulse 1 (95% CI)): 750 nM
Kd (GluN1/GluN2D [1]; inhibitor preapplied): 430 nM
IC50 (GluN1/GluN2D [1]; peak current response to glutamate, inhibitor preapplied, read-out: IC50 peak (95% CI)): 230 nM
IC50 (GluN1/GluN2D [1]; steady-state current response to glutamate, inhibitor preapplied, read-out: IC50 steady-state (95% CI)): 80 nM
τdeactivation following glutamate removal (GluN1/GluN2D [2]; 0.03 μM compound, mean ± SEM): 5.6 ± 0.3 s
τdeactivation following glutamate removal (GluN1/GluN2D [2]; 0.1 μM compound, mean ± SEM): 7.3 ± 0.3 s
τdeactivation following glutamate removal (GluN1/GluN2D [2]; 0.3 μM compound, mean ± SEM): 10.5 ± 1.0 s
Hill slope (GluN1/GluN2D [2]; coapplication with glutamate): 0.93
fold-change in IC50 for the peak and steady-state current responses (GluN1/GluN2D [2]; mean ± SEM, compared by ANOVA): 3.0 ± 0.3
IC50 fold higher during peak compared to steady-state (GluN1/GluN2D [2]; ratio of IC50 values): 3 fold
IC50 fold higher at first pulse compared to fifth pulse (GluN1/GluN2D [2]; trains of brief agonist applications): 1.9 fold
SMILES: O=C(O)CC(F)(F)C(=O)N1N=C(c2c(-c3ccc(Cl)cc3)c3ccccc3[nH]c2=O)CC1c1ccc(Cl)cc1 (stereo not drawn) [2i]
